The results in this text go back to PMC8146408 (Viruses, 2021).

The structures appear in SMILES notation. Values after ≈ are worked out from the molar mass of the structure shown. A value given as a limit tells only on which side of the number the result lay.

The nature of one data set: Cytotoxicity assay (XTT). The data set is classed as cell-based. Particulars: human, HepG2 cells, XTT; mean ± SD, at least two independent experiments; read-out: CC50 (concentration of a compound causing 50% cytotoxicity). For orientation: Tetrazolium assays rely on reduction of a dye to a coloured formazan, in cell work by metabolically active cells.
Data set [1] is described as follows: Microsomal stability, mouse liver microsomes. In kind it is in vitro ADME. To be noted: pH 7.4, cofactor NADPH, n = 3, read-out: Microsomal Stability t1/2. On the technique in general: Microsomes from liver hold many membrane-bound enzymes, among them those of drug oxidation.
Data set [2] can be described thus: Plasma stability, human plasma. In kind it is in vitro ADME. To be noted: pH 7.4, n = 3, read-out: Plasma Stability t1/2.
The nature of data set [3]: Plasma stability, mouse plasma. In kind it is in vitro ADME. Particulars: CD-1, pH 7.4, n = 3, read-out: Plasma Stability t1/2.
Data set [4] is described as follows: Aqueous solubility (thermodynamic, DPBS). In kind it is physicochemical. Particulars: Dulbecco's Phosphate-Buffered Saline (DPBS), aqueous buffer, thermodynamic from solid, pH 7.2, n = 3.
The subject of another data set is HepG2 cells. Kind of data set: Cytotoxicity assay (XTT). The data set is classed as cell-based. Particulars: for Concentration without cytotoxicity: cytotoxicity assay.
Another data set has as its target T1, HBV Cp (C150 dimer) (Hepatitis B virus genotype D subtype adw, UniProt P03147, R150C).
T1 construct: made in house; host or cells: E. coli BL21 (DE3), pET11a
Description: Thermal shift assay (TSA). To be noted: 20 µM compound, 1% DMSO. The data set is classed as binding.

Data set [5] can be described thus: Microsomal stability, human liver microsomes. In kind it is in vitro ADME. Particulars: pH 7.4, cofactor NADPH, n = 3, read-out: Microsomal Stability t1/2.
Another data set has as its system HBV replication. Description: Antiviral assay (HBV replication luciferase reporter in HuH-7 cells). In kind it is cell-based, Hepatitis B virus. Particulars: mean ± SD, at least two independent experiments.

T1 sequence (P03147 1-150 R150C): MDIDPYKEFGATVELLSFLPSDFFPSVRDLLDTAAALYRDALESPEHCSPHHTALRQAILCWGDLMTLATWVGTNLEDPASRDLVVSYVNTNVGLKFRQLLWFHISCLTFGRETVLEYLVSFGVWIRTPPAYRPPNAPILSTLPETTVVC

With `Cc1cc(NC(=O)c2cc(C#N)c(=O)[nH]c2C)ccc1F` [ZW-1840], the CC50 in “Cytotoxicity assay (XTT)” was more than 100 µM.
As a reminder, the solubility is how much of the substance goes into solution per volume. Low values mean a poorly soluble substance, high ones a readily soluble substance. For `Cc1cc(NC(=O)c2cnc3nc4ccccc4n3c2C)ccc1F` [ZW-1841], the half-life at 1 µM in [1] was 0.543 ± 0.0267 h; in data set [2], more than 6 h; in data set [3], more than 6 h; in [5], more than 2 h. Besides, the solubility at 72 h in data set [4] was determined as 0.31 ± 0.03 µM (≈ 0.104 µg/mL). Besides, the CC50 in “Cytotoxicity assay (XTT)” was more than 100 µM. In the data set on HepG2 cells, this compound registered a Concentration without cytotoxicity not below 100 µM. Besides, on HBV Cp (C150 dimer), the “TSA profile (effect on HBV Cp melting curve)” value (“TSA profile” below) is “bind to HBV Cp and affect capsid formation and stability”. Besides, the “EC50 (concentration of a compound inhibiting HBV replication by 50%)” value with HBV replication is given as “single-digit”.
On to `Cc1cn2c(C)c(C(=O)Nc3ccc(F)c(C)c3)cnc2n1` [ZW-1842], for which the CC50 in “Cytotoxicity assay (XTT)” was more than 100 µM.
For the compound `CC1=C(C(=O)Nc2ccc(F)c(C)c2)C=Nc2ccccc2N1` [ZW-1843], the CC50 in the data set “Cytotoxicity assay (XTT)” was more than 100 µM.
As for `CSc1c(C(=O)Nc2ccc(F)c(C)c2)c(C)[nH]c(=O)c1C#N` [ZW-1845], in the data set “Cytotoxicity assay (XTT)”, the CC50 is more than 100 µM.
Regarding `Cc1cc(NC(=O)c2c(C)[nH]c(=O)c3c(N)n[nH]c23)ccc1F` [ZW-1847], the half-life at 1 µM was more than 2 h in [1], more than 6 h in data set [2], more than 6 h in [3] and more than 2 h in [5]. The solubility at 72 h in [4] was 2.14 ± 0.03 µM (≈ 0.675 µg/mL). Further, the CC50 in the data set “Cytotoxicity assay (XTT)” is more than 100 µM. Moreover, in the data set with HepG2 cells, the Concentration without cytotoxicity was not below 100 µM. In addition, the “TSA profile” value on HBV Cp (C150 dimer) is “bind to HBV Cp and affect capsid formation and stability”. In addition, the “EC50 (concentration of a compound inhibiting HBV replication by 50%)” value with HBV replication is “single-digit”.
Regarding `CC1Oc2c(cccc2C(=O)Nc2cccc(C(F)F)c2)NC1=O` (centres unmarked) [ZW-1888], the CC50 was determined as 47 µM in the data set “Cytotoxicity assay (XTT)” and 46.6 ± 2.4 µM in the data set with HepG2 cells (HepG2 cells, XTT, mean ± SD, at least two independent experiments, read-out: CC50 (concentration of a compound causing 50% cytotoxicity)). Besides, the “TSA profile” value at HBV Cp (C150 dimer) was “bind to HBV Cp and affect capsid formation and stability”.
As to `O=C1NC2(CCCC2)C(=O)N1Cc1cn(-c2ccccc2)nc1-c1ccccc1` [ZW-1889], the CC50 in the data set “Cytotoxicity assay (XTT)” worked out at 58.2 ± 5.6 µM.
Turning to `Cc1cc(C)c(CNC(=O)c2cn(Cc3ccccc3)nc2-c2ccccc2)c(=O)[nH]1` [ZW-1918], in the data set “Cytotoxicity assay (XTT)”, the CC50 was found to be 47.6 ± 0.2 µM.
The same measure, in the same setting: for `COc1cccc(N2CC(C(=O)Nc3cccc(Cl)c3C)CC2=O)c1` (centres unmarked) [ZW-1929] the value was 41.3 ± 1.7 µM.
Consider `Cc1cccc(NC(=O)c2cccc(CN3C(=O)CNC3=O)c2)c1` [ZW-1946], for which the CC50 in “Cytotoxicity assay (XTT)” is 44.1 ± 0.6 µM.
